# Laboratory results published in US7087762B2, “Long-lasting antimicrobial reaction product of allantoin and formaldehyde containing a low level of free formaldehyde” (ISP Investments Inc., priority 2002, dated 2006).
# How the values were obtained:
# Type in all cases: cell-based
# CAN (Candida albicans) [1] = assay: Preservative challenge test, nonionic emulsion
# Experimental: (§1) A typical cosmetic emulsion was prepared for microbiological challenge testing and predetermined admixtures of a methylol compound and IPBC were added at various use levels. The emulsion thus prepared had the following composition:
# (§2) The challenge tests were carried out using the following microorganisms: SA, ECOLI, PSA, PC, AN and CAN, in this manner. 50 g aliquots of the test emulsion containing various amounts of the preservative admixture were inoculated with approximately 10^7–10^8 of the challenge organisms. The test samples then were stirred to disperse the challenge inoculum. The samples were incubated and assayed at 48 hours, 7, 14, 21 and 28 days. The assays were performed on 1 g of the test sample by serially diluting 10^1 to 10^6 of the original concentration. The plating medium for bacteria was Letheen agar and for fungi it was low pH Mycophil agar with Tween 20. Each plated sample was incubated for 48 hours at 37° C. for bacteria, 5 days at 25° C. for mold, and 3 days at 25° C. for fungi. After incubation, readings of the number of colonies per milliliter (cfu/ml) were made. At 21 days the test product was reinoculated with half of the original inoculum.
# [2] = test system: PSA (Pseudomonas aeruginosa); assay: Preservative challenge test, nonionic emulsion
# Experimental: as §1, §2
# [3] = test system: SA (Staphylococcus aureus); assay: Preservative challenge test, nonionic emulsion
# Experimental: as §1, §2
# CAN (Candida albicans) [4] = assay: Preservative challenge test, screening emulsion
# Experimental: as §1
# (§3) To prepare the emulsion, Phases A and B were heated separately to 75°–80° C. Phase A then was added to Phase B with mixing. The mixture then was cooled to 55°–60° C. At this point the desired amount of the preservative admixture was added and the product was cooled to 50° C. while stirring. The citric acid solution then was added to adjust the pH and the mixture was stirred until a temperature of 30° C. was reached.
# as §2
# [5] = test system: PSA (Pseudomonas aeruginosa); assay: Preservative challenge test, screening emulsion
# Experimental: as §1, §3, §2
# [6] = test system: SA (Staphylococcus aureus); assay: Preservative challenge test, screening emulsion
# Experimental: as §1, §3, §2
# [7] = test system: EC (ECOLI, Escherichia coli); assay: Preservative challenge test, screening emulsion
# Experimental: as §1, §3, §2
# AN (Aspergillus niger) = assay: Preservative challenge test, screening emulsion
# Experimental: as §1, §3, §2
structure (smiles),measurement,setting,value
O=C1C(N(CO)C(=O)NCO)N(CO)C(=O)N1CO (stereo not shown) [Germall II],"cfu/ml, 48 hrs",CAN (Candida albicans) [1]; 2000 ppm,"320,000 cfu/ml"
same,"cfu/ml, 7 days",CAN (Candida albicans) [1]; 2000 ppm,"720,000 cfu/ml"
same,"cfu/ml, 14 days",CAN (Candida albicans) [1]; 2000 ppm,"650,000 cfu/ml"
same,"cfu/ml, 21 days",CAN (Candida albicans) [1]; 2000 ppm,"730,000 cfu/ml"
same,"cfu/ml, 28 days",CAN (Candida albicans) [1]; 2000 ppm,>1E6 cfu/ml
same,"cfu/ml, 48 hrs",CAN (Candida albicans) [1]; 4000 ppm,50 cfu/ml
same,"cfu/ml, 7 days",CAN (Candida albicans) [1]; 4000 ppm,"10,000 cfu/ml"
same,"cfu/ml, 14 days",CAN (Candida albicans) [1]; 4000 ppm,"620,000 cfu/ml"
same,"cfu/ml, 21 days",CAN (Candida albicans) [1]; 4000 ppm,"460,000 cfu/ml"
same,"cfu/ml, 28 days",CAN (Candida albicans) [1]; 4000 ppm,>1E6 cfu/ml
same,"cfu/ml, 48 hrs",[2]; 2000 ppm,<10 cfu/ml
same,"cfu/ml, 7 days",[2]; 2000 ppm,<10 cfu/ml
same,"cfu/ml, 14 days",[2]; 2000 ppm,<10 cfu/ml
same,"cfu/ml, 21 days",[2]; 2000 ppm,<10 cfu/ml
same,"cfu/ml, 28 days",[2]; 2000 ppm,<10 cfu/ml
same,"cfu/ml, 48 hrs",[2]; 4000 ppm,<10 cfu/ml
same,"cfu/ml, 7 days",[2]; 4000 ppm,<10 cfu/ml
same,"cfu/ml, 14 days",[2]; 4000 ppm,<10 cfu/ml
same,"cfu/ml, 21 days",[2]; 4000 ppm,<10 cfu/ml
same,"cfu/ml, 28 days",[2]; 4000 ppm,<10 cfu/ml
same,"cfu/ml, 48 hrs",[3]; 2000 ppm,<10 cfu/ml
same,"cfu/ml, 7 days",[3]; 2000 ppm,<10 cfu/ml
same,"cfu/ml, 14 days",[3]; 2000 ppm,<10 cfu/ml
same,"cfu/ml, 21 days",[3]; 2000 ppm,<10 cfu/ml
same,"cfu/ml, 28 days",[3]; 2000 ppm,<10 cfu/ml
same,"cfu/ml, 48 hrs",[3]; 4000 ppm,<10 cfu/ml
same,"cfu/ml, 7 days",[3]; 4000 ppm,<10 cfu/ml
same,"cfu/ml, 14 days",[3]; 4000 ppm,<10 cfu/ml
same,"cfu/ml, 21 days",[3]; 4000 ppm,<10 cfu/ml
same,"cfu/ml, 28 days",[3]; 4000 ppm,<10 cfu/ml
same,"cfu/ml, 48 hrs",CAN (Candida albicans) [4]; 250 ppm,"290,000 cfu/ml"
same,"cfu/ml, 7 days",CAN (Candida albicans) [4]; 250 ppm,"170,000 cfu/ml"
same,"cfu/ml, 14 days",CAN (Candida albicans) [4]; 250 ppm,"71,000 cfu/ml"
same,"cfu/ml, 21 days",CAN (Candida albicans) [4]; 250 ppm,"46,000 cfu/ml"
same,"cfu/ml, 28 days",CAN (Candida albicans) [4]; 250 ppm,"680,000 cfu/ml"
same,"cfu/ml, 48 hrs",CAN (Candida albicans) [4]; 500 ppm,"170,000 cfu/ml"
same,"cfu/ml, 7 days",CAN (Candida albicans) [4]; 500 ppm,"100,000 cfu/ml"
same,"cfu/ml, 14 days",CAN (Candida albicans) [4]; 500 ppm,"90,000 cfu/ml"
same,"cfu/ml, 21 days",CAN (Candida albicans) [4]; 500 ppm,"320,000 cfu/ml"
same,"cfu/ml, 28 days",CAN (Candida albicans) [4]; 500 ppm,"930,000 cfu/ml"
same,"cfu/ml, 48 hrs",CAN (Candida albicans) [4]; 1000 ppm,"160,000 cfu/ml"
same,"cfu/ml, 7 days",CAN (Candida albicans) [4]; 1000 ppm,"78,000 cfu/ml"
same,"cfu/ml, 14 days",CAN (Candida albicans) [4]; 1000 ppm,"63,000 cfu/ml"
same,"cfu/ml, 21 days",CAN (Candida albicans) [4]; 1000 ppm,"260,000 cfu/ml"
same,"cfu/ml, 28 days",CAN (Candida albicans) [4]; 1000 ppm,"210,000 cfu/ml"
same,"cfu/ml, 48 hrs",CAN (Candida albicans) [4]; 2000 ppm,150 cfu/ml
same,"cfu/ml, 7 days",CAN (Candida albicans) [4]; 2000 ppm,"9,600 cfu/ml"
same,"cfu/ml, 14 days",CAN (Candida albicans) [4]; 2000 ppm,"48,900 cfu/ml"
same,"cfu/ml, 21 days",CAN (Candida albicans) [4]; 2000 ppm,"490,000 cfu/ml"
same,"cfu/ml, 28 days",CAN (Candida albicans) [4]; 2000 ppm,"210,000 cfu/ml"
same,"cfu/ml, 48 hrs",[5]; 250 ppm,<10 cfu/ml
same,"cfu/ml, 7 days",[5]; 250 ppm,<10 cfu/ml
same,"cfu/ml, 14 days",[5]; 250 ppm,<10 cfu/ml
same,"cfu/ml, 21 days",[5]; 250 ppm,<10 cfu/ml
same,"cfu/ml, 28 days",[5]; 250 ppm,<10 cfu/ml
same,"cfu/ml, 48 hrs",[5]; 500 ppm,<10 cfu/ml
same,"cfu/ml, 7 days",[5]; 500 ppm,<10 cfu/ml
same,"cfu/ml, 14 days",[5]; 500 ppm,<10 cfu/ml
same,"cfu/ml, 21 days",[5]; 500 ppm,<10 cfu/ml
same,"cfu/ml, 28 days",[5]; 500 ppm,<10 cfu/ml
same,"cfu/ml, 48 hrs",[5]; 1000 ppm,<10 cfu/ml
same,"cfu/ml, 7 days",[5]; 1000 ppm,<10 cfu/ml
same,"cfu/ml, 14 days",[5]; 1000 ppm,<10 cfu/ml
same,"cfu/ml, 21 days",[5]; 1000 ppm,<10 cfu/ml
same,"cfu/ml, 28 days",[5]; 1000 ppm,<10 cfu/ml
same,"cfu/ml, 48 hrs",[5]; 2000 ppm,<10 cfu/ml
same,"cfu/ml, 7 days",[5]; 2000 ppm,<10 cfu/ml
same,"cfu/ml, 14 days",[5]; 2000 ppm,<10 cfu/ml
same,"cfu/ml, 21 days",[5]; 2000 ppm,<10 cfu/ml
same,"cfu/ml, 28 days",[5]; 2000 ppm,<10 cfu/ml
same,"cfu/ml, 48 hrs",[6]; 250 ppm,"55,000 cfu/ml"
same,"cfu/ml, 7 days",[6]; 250 ppm,<10 cfu/ml
same,"cfu/ml, 14 days",[6]; 250 ppm,<10 cfu/ml
same,"cfu/ml, 21 days",[6]; 250 ppm,<10 cfu/ml
same,"cfu/ml, 28 days",[6]; 250 ppm,<10 cfu/ml
same,"cfu/ml, 48 hrs",[6]; 500 ppm,"17,000 cfu/ml"
same,"cfu/ml, 7 days",[6]; 500 ppm,<10 cfu/ml
same,"cfu/ml, 14 days",[6]; 500 ppm,<10 cfu/ml
same,"cfu/ml, 21 days",[6]; 500 ppm,<10 cfu/ml
same,"cfu/ml, 28 days",[6]; 500 ppm,<10 cfu/ml
same,"cfu/ml, 48 hrs",[6]; 1000 ppm,<10 cfu/ml
same,"cfu/ml, 7 days",[6]; 1000 ppm,<10 cfu/ml
same,"cfu/ml, 14 days",[6]; 1000 ppm,<10 cfu/ml
same,"cfu/ml, 21 days",[6]; 1000 ppm,<10 cfu/ml
same,"cfu/ml, 28 days",[6]; 1000 ppm,<10 cfu/ml
same,"cfu/ml, 48 hrs",[6]; 2000 ppm,<10 cfu/ml
same,"cfu/ml, 7 days",[6]; 2000 ppm,<10 cfu/ml
same,"cfu/ml, 14 days",[6]; 2000 ppm,<10 cfu/ml
same,"cfu/ml, 21 days",[6]; 2000 ppm,<10 cfu/ml
same,"cfu/ml, 28 days",[6]; 2000 ppm,<10 cfu/ml
same,"cfu/ml, 48 hrs",[7]; 250 ppm,5500 cfu/ml
same,"cfu/ml, 7 days",[7]; 250 ppm,<10 cfu/ml
same,"cfu/ml, 14 days",[7]; 250 ppm,<10 cfu/ml
same,"cfu/ml, 21 days",[7]; 250 ppm,<10 cfu/ml
same,"cfu/ml, 28 days",[7]; 250 ppm,<10 cfu/ml
same,"cfu/ml, 48 hrs",[7]; 500 ppm,610 cfu/ml
same,"cfu/ml, 7 days",[7]; 500 ppm,<10 cfu/ml
same,"cfu/ml, 14 days",[7]; 500 ppm,<10 cfu/ml
same,"cfu/ml, 21 days",[7]; 500 ppm,<10 cfu/ml
same,"cfu/ml, 28 days",[7]; 500 ppm,<10 cfu/ml
same,"cfu/ml, 48 hrs",[7]; 1000 ppm,<10 cfu/ml
same,"cfu/ml, 7 days",[7]; 1000 ppm,<10 cfu/ml
same,"cfu/ml, 14 days",[7]; 1000 ppm,<10 cfu/ml
same,"cfu/ml, 21 days",[7]; 1000 ppm,<10 cfu/ml
same,"cfu/ml, 28 days",[7]; 1000 ppm,<10 cfu/ml
same,"cfu/ml, 48 hrs",[7]; 2000 ppm,<10 cfu/ml
same,"cfu/ml, 7 days",[7]; 2000 ppm,<10 cfu/ml
same,"cfu/ml, 14 days",[7]; 2000 ppm,<10 cfu/ml
same,"cfu/ml, 21 days",[7]; 2000 ppm,<10 cfu/ml
same,"cfu/ml, 28 days",[7]; 2000 ppm,<10 cfu/ml
same,"cfu/ml, 48 hrs",AN (Aspergillus niger); 250 ppm,"50,000 cfu/ml"
same,"cfu/ml, 7 days",AN (Aspergillus niger); 250 ppm,<10 cfu/ml
same,"cfu/ml, 14 days",AN (Aspergillus niger); 250 ppm,<10 cfu/ml
same,"cfu/ml, 21 days",AN (Aspergillus niger); 250 ppm,<10 cfu/ml
same,"cfu/ml, 28 days",AN (Aspergillus niger); 250 ppm,100 cfu/ml
same,"cfu/ml, 48 hrs",AN (Aspergillus niger); 500 ppm,40 cfu/ml
same,"cfu/ml, 7 days",AN (Aspergillus niger); 500 ppm,<10 cfu/ml
same,"cfu/ml, 14 days",AN (Aspergillus niger); 500 ppm,<10 cfu/ml
same,"cfu/ml, 21 days",AN (Aspergillus niger); 500 ppm,<10 cfu/ml
same,"cfu/ml, 28 days",AN (Aspergillus niger); 500 ppm,<10 cfu/ml
same,"cfu/ml, 48 hrs",AN (Aspergillus niger); 1000 ppm,<10 cfu/ml
same,"cfu/ml, 7 days",AN (Aspergillus niger); 1000 ppm,<10 cfu/ml
same,"cfu/ml, 14 days",AN (Aspergillus niger); 1000 ppm,<10 cfu/ml
same,"cfu/ml, 21 days",AN (Aspergillus niger); 1000 ppm,<10 cfu/ml
same,"cfu/ml, 28 days",AN (Aspergillus niger); 1000 ppm,<10 cfu/ml
same,"cfu/ml, 48 hrs",AN (Aspergillus niger); 2000 ppm,<10 cfu/ml
same,"cfu/ml, 7 days",AN (Aspergillus niger); 2000 ppm,<10 cfu/ml
same,"cfu/ml, 14 days",AN (Aspergillus niger); 2000 ppm,<10 cfu/ml
same,"cfu/ml, 21 days",AN (Aspergillus niger); 2000 ppm,<10 cfu/ml
same,"cfu/ml, 28 days",AN (Aspergillus niger); 2000 ppm,<10 cfu/ml
